We go through two compounds from article PMC9607159, “High-Resolution Bioassay Profiling with Complemented Sensitivity and Resolution for Pancreatic Lipase Inhibitor Screening” (Molecules, 2022).

The target in this assay is T1, pancreatic lipase (PL) (Sus scrofa, UniProt P00591).
T1 construct: gene PNLIP
T1 sequence (P00591 1-450): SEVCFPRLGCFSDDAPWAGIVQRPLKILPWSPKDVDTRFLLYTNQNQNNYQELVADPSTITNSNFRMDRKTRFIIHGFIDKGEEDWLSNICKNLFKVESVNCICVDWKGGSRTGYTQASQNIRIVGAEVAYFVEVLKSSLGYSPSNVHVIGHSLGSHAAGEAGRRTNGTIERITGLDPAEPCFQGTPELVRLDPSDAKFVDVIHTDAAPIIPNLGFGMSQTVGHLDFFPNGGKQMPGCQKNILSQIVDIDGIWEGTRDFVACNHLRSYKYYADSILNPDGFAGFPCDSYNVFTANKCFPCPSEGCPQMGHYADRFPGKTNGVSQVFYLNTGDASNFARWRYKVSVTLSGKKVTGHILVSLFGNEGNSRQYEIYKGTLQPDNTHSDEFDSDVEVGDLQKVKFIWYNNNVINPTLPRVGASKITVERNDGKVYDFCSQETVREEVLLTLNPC
Description: fluorogenic 4-MUO lipase assay dose-response; also nanofractionation bioassay profiling and ligand fishing with PL magnetic beads. The assay is classed as biochemical.

Where two headings read alike, the source gives them in different places.

For `O=C(O[C@@H]1Cc2c(O)cc(O)cc2O[C@@H]1c1cc(O)c(O)c(O)c1)c1cc(O)c(O)c(O)c1` [(-)-Epigallocatechin gallate], the IC50 (read-out: IC50) was determined as 0.97 µM.

In turn, `O=c1cc(-c2ccc(O)c(O)c2)oc2cc(O)cc(O)c12` [luteolin] came in with an IC50 of 30.6 µM.
